Results: patent publication US9180163B2, “Parstatin peptides” (priority 2009, dated 2015)
Ends that are not written are not given here.

How the values were obtained:
[1] = tested on: myocardial ischemia-reperfusion injury in Sprague Dawley rats; conditions: for infarct size, inhibitor alone: without parstatin (1-26), L-NMA 15 μg/Kg, ODQ 1 mg/kg, glibenclamide 3 mg/kg, atractyloside 3 mg/Kg
Description: Parstatin (1-41) was used in an in vivo rat model of cardiac ischemia and reperfusion, and in an in vitro isolated rat heart model of ischemia-reperfusion injury.
For in vivo infarct size studies, rats were anesthetized with pentobarbital sodium (50 mg/Kg) and heparin (1000 IU/Kg) and underwent 30 min of regional ischemia followed by 120 min of reperfusion. Parstatin (1-41) was administered-intravenously over 1 min starting 15 min prior to ischemia, or 15 min after the onset of ischemia, or 10 seconds after the onset of reperfusion in separate series of experiments (n=6/group).
To induce ischemia, ligature was positioned around the left main coronary artery and threaded through a plastic snare to permit reversible occlusion of the coronary artery. Coronary occlusion was induced by clamping the snare onto the heart and reperfusion was achieved by releasing the snare. At the end of reperfusion, the coronary artery was re-occluded and the risk zone was delineated by perfusion of 0.5% Evans' blue into the aortic cannula. Hearts were sectioned and incubated in 1% triphenyltetrazolium chloride in phosphate buffer for 15 min to define white necrotic tissue when fixed in 10% formalin for 24 h. Area at risk (AAR) and infarct-to-risk rations were determined by computerized planimetry using J-Image v.i.6 software (NIH, Bethesda, Mass.).
For in vivo infarct size/ischemia-reperfusion studies, rats were anesthetized with pentobarbital sodium (50 mg/Kg) and heparin (1000 IU/Kg) and underwent 30 min of regional ischemia followed by 120 min of reperfusion. Human hydrophobic parstatin (1-26) fragment was administered intravenously over 1 min at one of three time points: 1) starting 15 min prior to ischemia, 2) 15 min after the onset of ischemia, or 3) 10 seconds after the onset of reperfusion in a separate series of experiments (n=6/group).
Ischemia was induced by placement of a ligature around the left main coronary artery which was threaded through a plastic snare to permit reversible occlusion of the coronary artery. Coronary occlusion was induced by clamping the snare onto the heart and reperfusion was achieved by releasing the snare. At the end of reperfusion, the coronary artery was re-occluded and the risk zone was delineated by perfusion 0.5% Evans' blue into the aortic cannula.
Hearts were sectioned and incubated in 1% triphenyltetrazolium chloride in phosphate buffer for 15 min to define white necrotic tissue when fixed in 10% formalin for 24 h. Area at risk (AAR) and infarct-to-risk rations were determined by computerized planimetry using J-Image v.i.6 software (NIH, Bethesda, Mass.). The principal endpoint of these studies was infarct size expressed as a percentage of the area at risk.

[2] = tested on: isolated rat hearts; experiment: isolated rat heart ischemia-reperfusion; conditions: for infarct size / LVDP, inhibitor alone: without parstatin (1-41), L-NMA 100 μM, ODQ 10 μM
Description: For in vitro studies, excised hearts were retrogradely perfused through the aorta with a modified Krebs buffer. Coronary flow rate was determined by timed collection of the coronary effluent. A saline-filled latex balloon connected to a pressure transducer was inserted into the left […] (LV), and baseline end-diastolic pressure was set at 5-10 mmHg. Heart rate, LV end-diastolic pressure and LV developed pressures (LVDP) were recorded continuously. The measurements for post-ischemic recovery of LVDP used for comparison were taken at 180 min of reperfusion. After stabilization for 15-20 min, the hearts (n=6/group) were subjected to 30 min of regional ischemia, followed by 180 min of reperfusion. Different concentrations of […] (1-41) were perfused 15 min prior to coronary occlusion until occlusion. Control hearts produced an infarct size of 51±3% of the area at risk (FIG. 19A). […] A picture representation of infarct in control versus […] Similarly, […] (1-41) increased recovery of LVDP in a concentration-dependent manner (FIG. 19B). Again, the optimal concentration was 1 μM which produced a 23% recovery of LVDP (FIG. 19B).

[3] = tested on: HUVEC cells; experiment: [3H]-thymidine incorporation (DNA synthesis); type: cell-based, human; conditions: 10 μM, bFGF 5 ng/ml
Description: The ability of parstatin (1-41) to inhibit DNA synthesis of endothelial cells was assessed in thymidine incorporation assays. HUVEC cells were grown until 60-80% confluent in 24-well plates. Cells were treated with indicated peptides in serum-free medium containing either 0.5% BSA, or VEGF, or bFGF, or medium containing 5% FBS, or epidermal growth factor (EGF), or heparin-binging EGF (HB-EGF) for 18 hours. All cells were pulsed with 0.5 μCi/ml [3H]-thymidine (ICN Biomedicals Inc., Irvine Calif.) for additional 6 h. Radioactivity incorporated into DNA was determined in liquid scintillation counter.

[4] = tested on: Erk1/2 (p42/44 MAPK) in HUVEC cells; experiment: Erk1/2 phosphorylation immunoblot (MAP kinase pathway); type: cell-based, human; conditions: pretreatment 1 h, 10 μM; stimulated by FBS, bFGF or VEGF
Description: The MAPK (Erk1/2, p42/44) cascade mediates mitogenesis. […] HUVEC cells were cultured in 35 mm tissue culture dishes. After reaching 80% confluency, cells were growth factor-starved and subsequently stimulated for 10 min with vehicle or indicated agents. In combination experiments, cells were pretreated with parstatin or other peptides for 10 to 60 min.
Attached cells were lysed with Laenmli sample buffer, resolved in 10% SDS-PAGE, and transferred to nitrocellulose membranes. Membranes were incubated with primary antibodies against phospho p42/44 mitogen-activated protein kinases (p-Erk1/2, New England Biolabs, UK) and p42/44 Erk1/2 (t-Erk1/2, New England Biolabs, UK). Membranes were then probed with secondary antibodies horseradish peroxidase-conjugated, and proteins were visualized by chemiluminescent detection.

[5] = tested on: retinal neovascularization in C57BL/6 mice; type: in vivo; conditions: mouse, in vivo
Source text: Parstatin (1-41), hydrophobic parstatin (1-26) fragment and hydrophilic parstatin (24-41) fragment were used in an in vivo mouse model of retinal neovascularization. In particular, oxygen-induced retinopathy was used to generate retinal neovascularization as a preclinical disease model for retinopathy of prematurity and other retinal neovascular diseases such as diabetic retinopathy. In this model, exposing newborn mice to hyperoxia prompts regression or delay of retinal vascular development, followed by abnormal angiogenesis after their return to normal oxygen levels. Mainly, this model mirrors the events that occur during retinopathy of prematurity, when infants are removed from oxygen-rich incubators, a condition involving pathological neovascularization that can affect premature infants and result in permanent visual loss. In recent years, the use of this model has been extended to the general study of ischemic vasculopathies, such us diabetic retinopathy, and related antiangiogenic interventions, and it is now used extensively in both basic and applied research environments.
Pathogen-free C57BL/6 mice were treated in accordance with the Association for Research in Vision and Ophthalmology Statement for the Use of Animals in Ophthalmic and Vision Research and the guidelines of the Animal Care and Use Committee at local University Medical School. Litters of 7-day old (P7) mice were exposed to an atmosphere of 75% oxygen in an airtight incubator for 5 days (P12), after which they were returned to room air for 5 days (P17). For quantification of oxygen-induced retinal neovascularization, mice on P17 were given an intraocular injection of 1 μl of rat anti-mouse platelet endothelial cell adhesion molecule-1 (PECAM-1) antibody (Pharmingen, San Jose, Calif.) under a dissecting microscope with Harvard pump microinjection apparatus. Mice were euthanized 12 hours after injection and eyes were fixed in PBS-buffered formalin for 5 hours. […] Retinal flat mounts were prepared and assessed with fluorescence microscope using imaging software. […]

[6] = tested on: choroidal neovascularization in C57BL/6J mice; type: in vivo; conditions: mouse, in vivo
Description: Parstatin (1-41), hydrophobic parstatin (1-26) fragment and hydrophilic parstatin (24-41) fragment were used in an in vivo mouse model of choroidal neovascularization. In particular, laser photocoagulation-induced rupture of Bruch's membrane was used to generate choroidal neovascularization as a preclinical disease model for age-related macular degeneration. Pathogen-free C57BL/6J (4-5 week-old) mice were treated in accordance with the Association for Research in Vision and Ophthalmology Statement for the Use of Animals in Ophthalmic and Vision Research and the guidelines of the Animal Care and Use Committee at local University Medical School.
C57BL/6J (4-5 week-old) mice were anesthetized with ketamine hydrochloride (100 mg/kg body weight) and xylazine-(4 mg/Kg body weight) and the pupils were dilated with 1% tropicamide. Laser photocoagulation (75 μm spot size, 0.1 sec duration, 120 mW) was performed in the 9, 12, and 3 o'clock positions of the posterior pole of the retina with the slit lamp delivery system of an Oculight GL diode laser (Index, Mountain View, Calif.) and a handheld cover slip as a contact lens to view the retina. Production of a bubble at the time of laser, which indicates rupture of Bruch's membrane, is an important factor in obtaining CNV. Therefore, only burns in which a bubble was produced were included in the study. Two weeks after rupture of Bruch's membrane, anesthetized mice were perfused with 50 mg/ml fluorescein-labelled-dextran (2×10^6 average molecular weight, Sigma-Aldrich, St. Louis, Mo.). The eyes were then dissected and fixed in 10% Formalin for 3 hours and choroidal flat mounts were examined by fluorescence microscopy. Image-Pro Plus software (Media Cybernetics, Silver Spring, Md.) was used to measure the total area of CNV at each rupture site by personnel blinded as to study treatments and groups.
Intraocular injections of parstatin peptides were performed with a Harvard pump microinjection apparatus and pulled glass micropipets. […] Choroidal neovascularization was assessed 14 days after laser treatment.

| Molecule | infarct size, inhibitor alone [1] | infarct size / LVDP, inhibitor alone [2] | other results |
| --- | --- | --- | --- |
| C=C1[C@@H]2CC[C@H]3[C@]4(C)C[C@H](O[C@@H]5O[C@H](CO)[C@@H](OS(=O)(=O)O)[C@H](OS(=O)(=O)O)[C@H]5OC(=O)CC(C)C)C[C@@H](C(=O)O)[C@H]4CC[C@]3(C2)[C@H]1O [Atractyloside, atractyloside, reference compound] | no effect |  |  |
| COc1ccc(Cl)cc1C(=O)NCCc1ccc(S(=O)(=O)NC(=O)NC2CCCCC2)cc1 [Glibenclamide, glibenclamide, reference compound] | no effect |  |  |
| COC(=O)[C@@H](N)CCCNC(=N)N[N+](=O)[O-] [L-NMA, Nω-nitro-L-arginine methyl ester, reference compound] | without effect | no effect |  |
| O=c1onc2cnc3ccccc3n12 [ODQ, 1H-[1,2, 4]oxadiazolo-[4,3-a]quinoxalin-1-one, reference compound] | no effect | no effect |  |
| MGPRRLLLVAACFSLCGPLL-SARALTRSAPTPRDRANKETR (MGPRRLLLVAACFSLCGPLLSARALTRSAPTPRDRANKETR; Scrambled synthetic peptide) [modulated parstatin, human parstatin with amino acids 24 to 41 scrambled] |  |  | bFGF-induced DNA synthesis [3]: inhibit; activation of Erk1/2 [4]: inhibit |
| MGPRRLLLVAACFSLCGPLLSARTRARRPESKATNATLDPR (cysteines drawn unpaired) [parstatin (1-41)] |  |  | tolerability in newborn mice [5]: not well tolerated; inotropic or chronotropic effects before ischemia ([2]; 1 μM): did not have inotropic or chronotropic effects; baseline hemodynamics (heart rate, blood pressures) between groups ([1]; rat, in vivo): no significant differences; tolerability (slit lamp: irritation, inflammation, ocular toxicity; systemic toxicity) [6]: well tolerated |
